Several values for one entry are separate records, joined by “and”; a condition that tells them apart may be missing. Identical values can stand only once.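 Exposure lasted 48 hours, with cells grown in 96-well plates and compounds tested at five concentrations. Abbreviation: GI50, concentration required for 50% inhibition of growth. TGI marks complete inhibition of growth.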
test system: SK-MEL-28 melanoma; experiment: NCI anticancer screen, dose series, 48 h

| Structure (SMILES) | GI50 [µM] | TGI [µM] |
| --- | --- | --- |
| O=C(c1ccccc1)c1cc(Cl)ccc1OCCCCN1CCN(CCCCOc2ccc(Cl)cc2C(=O)c2ccccc2)CC1 | 11.5 | 24.2 |
| CNCCNc1c2c(c(NCCNC)c3c(CN(C)C)c[nH]c13)C(=O)c1ccccc1C2=O | 9.59 | 26.4 |
| O=C1NC(=Nc2ccccc2)S/C1=C\c1ccc2ncccc2c1 | > 25 | > 25 |
| C/C1=C\CC[C@@]2(C)O[C@@H]2[C@H]2OC(=O)[C@@H](CN(C)C)[C@@H]2CC1 | 21.9 | 51.6 |
| Oc1ccc(Cl)cc1Cc1cc(Cl)cc(Cl)c1O | 4.83 | 31.7 |
| C=C(C=O)C1CCC2(C(=O)O)CCC3(C)C(CCC4C5(C)CCC(O)C(C)(C)C5CCC43C)C12 (stereo not drawn) | 1.96 | 4.62 |
| COc1ccc(N2C(=O)C(c3ccccc3)(c3ccccc3)C23C(=O)N(C)c2ccccc23)cc1 (stereo not drawn) | > 100 | > 100 |
| CC(C)=C[C@@H]1C[C@H](C)[C@H]2CC[C@H](C)C3=C2[C@](O)(OC3=O)[C@]1(C)O | > 100 | > 100 |
| C/C(=C\CCc1ccoc1)CC/C=C(\C)CCCC1=CC(=O)OC1 | 7.98 | 46.7 |
| O=c1c2ccccc2[se]n1-c1cccnc1 |  | 81 |

test system: SNB-19 CNS; experiment: NCI anticancer screen, dose series, 48 h

| Structure (SMILES) | TGI | GI50 |
| --- | --- | --- |
| CCCCc1c(OC)cc(O)c2c1C(=O)c1[nH]c(C(=O)O)c(O)c(=O)c1C2=O | 15.1 µM |  |
| CCN1CCN(c2ccc(Nc3cc(N(C)C(=O)Nc4c(Cl)c(OC)cc(OC)c4Cl)ncn3)cc2)CC1 | 18.7 µM | 4.06 µM |
| CC(C)c1ccc(Nc2ccc3c(OCCCN4CCN(C)CC4)cccc3n2)cc1 | 30 µM | 12.5 µM |
| COc1ccc2c(c1)C(C)Cc1c(Cl)ncnc1N2C (stereo not drawn) | > 100 µM | 0.732 µM |
| COCCOc1cc(F)c2c(Nc3ccc(NC(=O)Cn4cc(C(C)C)nn4)cc3)ncnc2c1 | > 100 µM | 41 µM |
| C#Cc1cccc(Nc2ncnc3cc(OC)c(OCCCCCCC(=O)NO)cc23)c1 | 3.65 µM | 0.115 µM |
| Cc1nnc(S(=O)(=O)c2ccc(N=Nc3c(N)nc(N)nc3N)cc2)s1 | > 100 µM |  |
| O=c1n(CC2CO2)c(=O)n(CC2CO2)c(=O)n1CC1CO1 (stereo not drawn) | 98.3 µM and > 100 µM | 22 µM and 6.55 µM |
| Cc1ccc(C(SCC(N)C(=O)O)(c2ccccc2)c2ccc(C)cc2)cc1 (stereo not drawn) | 39.3 µM | 0.476 µM |
| COc1cc(Nc2cn[nH]c2-c2ccc(Cl)cc2)cc(OC)c1OC | > 69.3 µM | 6.96 µM |
| O=C(c1ccccc1)c1cc(Cl)ccc1OCCCCN1CCN(CCCCOc2ccc(Cl)cc2C(=O)c2ccccc2)CC1 | 22.8 µM | 10 µM |
| CNCCNc1c2c(c(NCCNC)c3c(CN(C)C)c[nH]c13)C(=O)c1ccccc1C2=O | > 41.7 µM | 12.2 µM |
| O=C1NC(=Nc2ccccc2)S/C1=C\c1ccc2ncccc2c1 | > 25 µM | > 22.9 µM |
| C/C1=C\CC[C@@]2(C)O[C@@H]2[C@H]2OC(=O)[C@@H](CN(C)C)[C@@H]2CC1 | 63 µM | 27.9 µM |
| Oc1ccc(Cl)cc1Cc1cc(Cl)cc(Cl)c1O | 28.9 µM | 3.83 µM |
| C=C(C=O)C1CCC2(C(=O)O)CCC3(C)C(CCC4C5(C)CCC(O)C(C)(C)C5CCC43C)C12 (stereo not drawn) | 20.8 µM | 8.18 µM |
| COc1ccc(N2C(=O)C(c3ccccc3)(c3ccccc3)C23C(=O)N(C)c2ccccc23)cc1 (stereo not drawn) | > 100 µM | > 100 µM |
| CC(C)=C[C@@H]1C[C@H](C)[C@H]2CC[C@H](C)C3=C2[C@](O)(OC3=O)[C@]1(C)O | > 100 µM | > 100 µM |
| C/C(=C\CCc1ccoc1)CC/C=C(\C)CCCC1=CC(=O)OC1 | > 100 µM | 17.7 µM |
| O=c1c2ccccc2[se]n1-c1cccnc1 | > 100 µM |  |

test system: UACC-257 melanoma; experiment: NCI anticancer screen, dose series, 48 h

| Structure (SMILES) | TGI | GI50 [µM] |
| --- | --- | --- |
| CCCCc1c(OC)cc(O)c2c1C(=O)c1[nH]c(C(=O)O)c(O)c(=O)c1C2=O | 46.6 µM |  |
| CCN1CCN(c2ccc(Nc3cc(N(C)C(=O)Nc4c(Cl)c(OC)cc(OC)c4Cl)ncn3)cc2)CC1 | 3.7 µM | 1.77 |
| CC(C)c1ccc(Nc2ccc3c(OCCCN4CCN(C)CC4)cccc3n2)cc1 | 16.2 µM | 5.65 |
| COc1ccc2c(c1)C(C)Cc1c(Cl)ncnc1N2C (stereo not drawn) | 23.3 µM | 0.471 |
| COCCOc1cc(F)c2c(Nc3ccc(NC(=O)Cn4cc(C(C)C)nn4)cc3)ncnc2c1 | > 100 µM | > 100 |
| C#Cc1cccc(Nc2ncnc3cc(OC)c(OCCCCCCC(=O)NO)cc23)c1 | 1.12 µM | 0.123 |
| Cc1nnc(S(=O)(=O)c2ccc(N=Nc3c(N)nc(N)nc3N)cc2)s1 | > 100 µM |  |
| O=c1n(CC2CO2)c(=O)n(CC2CO2)c(=O)n1CC1CO1 (stereo not drawn) | 38.4 µM and 109 µM | 15.4 |
| Cc1ccc(C(SCC(N)C(=O)O)(c2ccccc2)c2ccc(C)cc2)cc1 (stereo not drawn) | > 56.8 µM | 2.13 |
| COc1cc(Nc2cn[nH]c2-c2ccc(Cl)cc2)cc(OC)c1OC | > 83.6 µM | 15.7 |
| O=C(c1ccccc1)c1cc(Cl)ccc1OCCCCN1CCN(CCCCOc2ccc(Cl)cc2C(=O)c2ccccc2)CC1 | 7.57 µM | 3.07 |
| CNCCNc1c2c(c(NCCNC)c3c(CN(C)C)c[nH]c13)C(=O)c1ccccc1C2=O | 45.7 µM | 20.1 |
| O=C1NC(=Nc2ccccc2)S/C1=C\c1ccc2ncccc2c1 | > 25 µM | > 25 |
| C/C1=C\CC[C@@]2(C)O[C@@H]2[C@H]2OC(=O)[C@@H](CN(C)C)[C@@H]2CC1 | 28.4 µM | 12.8 |
| Oc1ccc(Cl)cc1Cc1cc(Cl)cc(Cl)c1O | 32.5 µM | 5.01 |
| C=C(C=O)C1CCC2(C(=O)O)CCC3(C)C(CCC4C5(C)CCC(O)C(C)(C)C5CCC43C)C12 (stereo not drawn) | 5.48 µM | 2.05 |
| COc1ccc(N2C(=O)C(c3ccccc3)(c3ccccc3)C23C(=O)N(C)c2ccccc23)cc1 (stereo not drawn) | > 100 µM | > 100 |
| CC(C)=C[C@@H]1C[C@H](C)[C@H]2CC[C@H](C)C3=C2[C@](O)(OC3=O)[C@]1(C)O | > 100 µM | > 100 |
| C/C(=C\CCc1ccoc1)CC/C=C(\C)CCCC1=CC(=O)OC1 | 11.3 µM | 2.81 |
| O=c1c2ccccc2[se]n1-c1cccnc1 | 57.7 µM |  |
